Measured values from PubChem BioAssay AID1963830 (Molecular Pharmacology Branch, DTP, NCI, 2024).

System: 922993-354-T-J3-PDC complex spheroid viability
Experiment: Anticancer human tumor 922993-354-T-J3-PDC patient-derived endometrial carcinoma cell line growth inhibition [POLQ]
Details: for IC50: curve of first compound; for viability, T/C: stronger effect = lower value
Summary of the method: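 PDC + HUVEC + MSC complex spheroids; POLQ inhibitors ± partner drugs; top conc. at/near clinical Cmax, else 10 microM (SN-38 1 microM), half-log dilutions; 37 degrees C, 5% CO2.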

[1] = second compound 0.0316 µM, first compound 0.00316 µM
[2] = second compound 0.0316 µM, first compound 0.01 µM
[3] = second compound 0.0316 µM, first compound 0.0316 µM
[4] = second compound 0.0316 µM, first compound 0.1 µM
[5] = second compound 0.0316 µM, first compound 0.316 µM
[6] = second compound 0.0316 µM, first compound 1 µM
[7] = second compound 0.1 µM, first compound 0.00316 µM
[8] = second compound 0.1 µM, first compound 0.01 µM
[9] = second compound 0.1 µM, first compound 0.0316 µM
[10] = second compound 0.1 µM, first compound 0.1 µM
[11] = second compound 0.1 µM, first compound 0.316 µM
[12] = second compound 0.1 µM, first compound 1 µM
[13] = second compound 0.316 µM, first compound 0.00316 µM
[14] = second compound 0.316 µM, first compound 0.01 µM
[15] = second compound 0.316 µM, first compound 0.0316 µM
[16] = second compound 0.316 µM, first compound 0.1 µM
[17] = second compound 0.316 µM, first compound 0.316 µM
[18] = second compound 0.316 µM, first compound 1 µM
[19] = second compound 1 µM, first compound 0.00316 µM
[20] = second compound 1 µM, first compound 0.01 µM
[21] = second compound 1 µM, first compound 0.0316 µM
[22] = second compound 1 µM, first compound 0.1 µM
[23] = second compound 1 µM, first compound 0.316 µM
[24] = second compound 1 µM, first compound 1 µM
[25] = second compound 3.16 µM, first compound 0.00316 µM
[26] = second compound 3.16 µM, first compound 0.01 µM
[27] = second compound 3.16 µM, first compound 0.0316 µM
[28] = second compound 3.16 µM, first compound 0.1 µM
[29] = second compound 3.16 µM, first compound 0.316 µM
[30] = second compound 3.16 µM, first compound 1 µM
[31] = second compound 10 µM, first compound 0.00316 µM
[32] = second compound 10 µM, first compound 0.01 µM
[33] = second compound 10 µM, first compound 0.0316 µM
[34] = second compound 10 µM, first compound 0.1 µM
[35] = second compound 10 µM, first compound 0.316 µM
[36] = second compound 10 µM, first compound 1 µM
[37] = second compound 0.0316 µM, first compound 3.16 µM
[38] = second compound 0.0316 µM, first compound 10 µM
[39] = second compound 0.1 µM, first compound 3.16 µM
[40] = second compound 0.1 µM, first compound 10 µM
[41] = second compound 0.316 µM, first compound 3.16 µM
[42] = second compound 0.316 µM, first compound 10 µM
[43] = second compound 1 µM, first compound 3.16 µM
[44] = second compound 1 µM, first compound 10 µM
[45] = second compound 3.16 µM, first compound 3.16 µM
[46] = second compound 3.16 µM, first compound 10 µM
[47] = second compound 10 µM, first compound 3.16 µM
[48] = second compound 10 µM, first compound 10 µM
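Further: spheroids exposed to the agents for one week.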
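Wherever viability, T/C is given: 100% = DMSO vehicle control wells.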

Molecule `C=CCn1c(=O)c2cnc(Nc3ccc(N4CCN(C)CC4)cc3)nc2n1-c1cccc(C(C)(C)O)n1` + Nc1ccc(C#CCN(C(=O)Cc2ncc(C(F)(F)F)cc2C(F)(F)F)c2ccc(F)cc2)nn1 has an IC50 (second compound 0.0316 µM) greater than 1 µM, an IC50 (second compound 0.1 µM) greater than 1 µM and an IC50 (second compound 0.316 µM) greater than 1 µM. For the same molecule, the IC50 (second compound 1 µM) was greater than 1 µM, the IC50 (second compound 3.16 µM) was greater than 1 µM and the IC50 (second compound 10 µM) was greater than 1 µM. For the same molecule, the viability, T/C [1] was 105%, the viability, T/C [2] was 102% and the viability, T/C [3] was 101%. The viability, T/C [4] was 100%, the viability, T/C [5] was 106% and the viability, T/C [6] was 98.5%. The viability, T/C [7] was 107%, the viability, T/C [8] was 98.5% and the viability, T/C [9] was 103%. For the same molecule, the viability, T/C [10] was 99.6%, the viability, T/C [11] was 104% and the viability, T/C [12] was 101%. The viability, T/C [13] was 107%, the viability, T/C [14] was 101% and the viability, T/C [15] was 97.5%. The viability, T/C [16] was 101%, the viability, T/C [17] was 99.6% and the viability, T/C [18] was 100%. It also gave a viability, T/C [19] of 103%, a viability, T/C [20] of 99% and a viability, T/C [21] of 101%. It also gave a viability, T/C [22] of 97.6%, a viability, T/C [23] of 100% and a viability, T/C [24] of 100%. The viability, T/C [25] was 100%, the viability, T/C [26] was 98.8% and the viability, T/C [27] was 101%. The viability, T/C [28] was 99.4%, the viability, T/C [29] was 101% and the viability, T/C [30] was 94.8%. It also gave a viability, T/C [31] of 96.3%, a viability, T/C [32] of 92.5% and a viability, T/C [33] of 94.5%. For the same molecule, the viability, T/C [34] was 95.8%, the viability, T/C [35] was 97% and the viability, T/C [36] was 55.2%.
`CCCS(=O)(=O)Nc1ccc(F)c(C(=O)c2c[nH]c3ncc(-c4ccc(Cl)cc4)cc23)c1F` + Nc1ccc(C#CCN(C(=O)Cc2ncc(C(F)(F)F)cc2C(F)(F)F)c2ccc(F)cc2)nn1 showed an IC50 (second compound 0.0316 µM) greater than 10 µM, an IC50 (second compound 0.1 µM) greater than 10 µM and an IC50 (second compound 0.316 µM) greater than 10 µM. It also gave an IC50 (second compound 1 µM) greater than 10 µM, an IC50 (second compound 3.16 µM) greater than 10 µM and an IC50 (second compound 10 µM) greater than 10 µM. It also gave a viability, T/C [3] of 99.3%, a viability, T/C [4] of 107% and a viability, T/C [5] of 105%. The viability, T/C [6] was 107%, the viability, T/C [37] was 104% and the viability, T/C [38] was 98.9%. For the same molecule, the viability, T/C [9] was 103%, the viability, T/C [10] was 108% and the viability, T/C [11] was 101%. For the same molecule, the viability, T/C [12] was 107%, the viability, T/C [39] was 107% and the viability, T/C [40] was 104%. It also gave a viability, T/C [15] of 109%, a viability, T/C [16] of 106% and a viability, T/C [17] of 105%. For the same molecule, the viability, T/C [18] was 107%, the viability, T/C [41] was 107% and the viability, T/C [42] was 93.7%. It also gave a viability, T/C [21] of 106%, a viability, T/C [22] of 104% and a viability, T/C [23] of 105%. For the same molecule, the viability, T/C [24] was 107%, the viability, T/C [43] was 102% and the viability, T/C [44] was 98.5%. It also gave a viability, T/C [27] of 102%, a viability, T/C [28] of 103% and a viability, T/C [29] of 99.1%. The viability, T/C [30] was 101%, the viability, T/C [45] was 104% and the viability, T/C [46] was 92.4%. The viability, T/C [33] was 97.7%, the viability, T/C [34] was 100% and the viability, T/C [35] was 103%. The viability, T/C [36] was 98.7%, the viability, T/C [47] was 100% and the viability, T/C [48] was 94.8%.
For `CNCc1ccc(-c2[nH]c3cc(F)cc4c3c2CCNC4=O)cc1` + Nc1ccc(C#CCN(C(=O)Cc2ncc(C(F)(F)F)cc2C(F)(F)F)c2ccc(F)cc2)nn1, the IC50 (second compound 0.0316 µM) was greater than 10 µM, the IC50 (second compound 0.1 µM) was greater than 10 µM and the IC50 (second compound 0.316 µM) was greater than 10 µM. The IC50 (second compound 1 µM) was greater than 10 µM, the IC50 (second compound 3.16 µM) was greater than 10 µM and the IC50 (second compound 10 µM) was greater than 10 µM. For the same molecule, the viability, T/C [3] was 101%, the viability, T/C [4] was 98.2% and the viability, T/C [5] was 98.2%. It also gave a viability, T/C [6] of 97%, a viability, T/C [37] of 96.1% and a viability, T/C [38] of 90.5%. The viability, T/C [9] was 103%, the viability, T/C [10] was 99% and the viability, T/C [11] was 99.9%. The viability, T/C [12] was 101%, the viability, T/C [39] was 97.3% and the viability, T/C [40] was 92.5%. It also gave a viability, T/C [15] of 97.3%, a viability, T/C [16] of 99.2% and a viability, T/C [17] of 97%. It also gave a viability, T/C [18] of 96%, a viability, T/C [41] of 102% and a viability, T/C [42] of 91.8%. The viability, T/C [21] was 104%, the viability, T/C [22] was 96.4% and the viability, T/C [23] was 94.7%. The viability, T/C [24] was 102%, the viability, T/C [43] was 97.3% and the viability, T/C [44] was 94.9%. The viability, T/C [27] was 97.3%, the viability, T/C [28] was 100% and the viability, T/C [29] was 101%. It also gave a viability, T/C [30] of 93.9%, a viability, T/C [45] of 95.9% and a viability, T/C [46] of 89.6%. It also gave a viability, T/C [33] of 95.5%, a viability, T/C [34] of 96.9% and a viability, T/C [35] of 91.9%. For the same molecule, the viability, T/C [36] was 93%, the viability, T/C [47] was 89.6% and the viability, T/C [48] was 69.9%.
In the case of `COc1cccc(OCCCN)c1-c1cc(Nc2cnc(C#N)cn2)n[nH]1` + Nc1ccc(C#CCN(C(=O)Cc2ncc(C(F)(F)F)cc2C(F)(F)F)c2ccc(F)cc2)nn1, the IC50 (second compound 0.0316 µM) is reported as 0.59 µM, the IC50 (second compound 0.1 µM) is reported as 0.67 µM and the IC50 (second compound 0.316 µM) is reported as 0.617 µM. The IC50 (second compound 1 µM) was 0.609 µM, the IC50 (second compound 3.16 µM) was 0.277 µM and the IC50 (second compound 10 µM) was 0.0523 µM. It also gave a viability, T/C [1] of 102%, a viability, T/C [2] of 100% and a viability, T/C [3] of 98.2%. For the same molecule, the viability, T/C [4] was 97.3%, the viability, T/C [5] was 83.4% and the viability, T/C [6] was 22.1%. The viability, T/C [7] was 104%, the viability, T/C [8] was 99% and the viability, T/C [9] was 95.9%. The viability, T/C [10] was 98.5%, the viability, T/C [11] was 99.1% and the viability, T/C [12] was 23.8%. The viability, T/C [13] was 102%, the viability, T/C [14] was 98.2% and the viability, T/C [15] was 94.7%. The viability, T/C [16] was 99.7%, the viability, T/C [17] was 92.3% and the viability, T/C [18] was 19.4%. The viability, T/C [19] was 102%, the viability, T/C [20] was 105% and the viability, T/C [21] was 101%. It also gave a viability, T/C [22] of 96.3%, a viability, T/C [23] of 94% and a viability, T/C [24] of 16.9%. For the same molecule, the viability, T/C [25] was 96.1%, the viability, T/C [26] was 98.1% and the viability, T/C [27] was 99.2%. It also gave a viability, T/C [28] of 94.2%, a viability, T/C [29] of 44.3% and a viability, T/C [30] of 14.8%. It also gave a viability, T/C [31] of 95.9%, a viability, T/C [32] of 92.8% and a viability, T/C [33] of 74.7%. For the same molecule, the viability, T/C [34] was 18.3%, the viability, T/C [35] was 10.5% and the viability, T/C [36] was 10.6%.
